# Data taken from PubChem BioAssay (NCI).
#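 96-well plates; 48 h exposure; 5 concentrations. Endpoints by linear interpolation between flanking doses. Not reached: highest tested concentration assigned. GI50 is the concentration that inhibits growth by half. At the TGI there is no net growth.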
# Columns and labels:
# Assay in all cases: NCI tumour cell line growth inhibition, 48 h
# NCI-H522 lung = system: NCI-H522 lung
# HCT-116 colon = system: HCT-116 colon
# SK-MEL-5 melanoma = system: SK-MEL-5 melanoma
# SF-295 CNS = system: SF-295 CNS
# SN12C renal = system: SN12C renal
# CAKI-1 renal = system: CAKI-1 renal
# PC-3 prostate = system: PC-3 prostate
# OVCAR-5 ovarian = system: OVCAR-5 ovarian
# UO-31 renal = system: UO-31 renal
# OVCAR-8 ovarian = system: OVCAR-8 ovarian
# KM12 colon = system: KM12 colon
# RPMI-8226 leukemia = system: RPMI-8226 leukemia
# SW-620 colon = system: SW-620 colon
# OVCAR-4 ovarian = system: OVCAR-4 ovarian
# SNB-19 CNS = system: SNB-19 CNS
# HT29 colon = system: HT29 colon
# ACHN renal = system: ACHN renal
# SR leukemia = system: SR leukemia
# IGROV1 ovarian = system: IGROV1 ovarian
# T-47D breast = system: T-47D breast
# M14 melanoma = system: M14 melanoma
# LOX IMVI melanoma = system: LOX IMVI melanoma
# UACC-257 melanoma = system: UACC-257 melanoma
# MCF7 breast = system: MCF7 breast
# CCRF-CEM leukemia = system: CCRF-CEM leukemia
# DU-145 prostate = system: DU-145 prostate
# NCI-H226 lung = system: NCI-H226 lung
# MDA-MB-231 breast = system: MDA-MB-231 breast
# 786-0 renal = system: 786-0 renal
# HCT-15 colon = system: HCT-15 colon
# U251 CNS = system: U251 CNS
# NCI/ADR-RES ovarian = system: NCI/ADR-RES ovarian
# UACC-62 melanoma = system: UACC-62 melanoma
# MOLT-4 leukemia = system: MOLT-4 leukemia
# SNB-75 CNS = system: SNB-75 CNS
# MALME-3M melanoma = system: MALME-3M melanoma
# A498 renal = system: A498 renal
# SF-539 CNS = system: SF-539 CNS
# OVCAR-3 ovarian = system: OVCAR-3 ovarian
# NCI-H23 lung = system: NCI-H23 lung
# HS 578T breast = system: HS 578T breast
# HOP-92 NSCLC = system: HOP-92 NSCLC
# K-562 leukemia = system: K-562 leukemia
# SK-MEL-2 melanoma = system: SK-MEL-2 melanoma
# NCI-H460 lung = system: NCI-H460 lung
# TK-10 renal = system: TK-10 renal
# HL-60(TB) leukemia = system: HL-60(TB) leukemia
# BT-549 breast = system: BT-549 breast
# COLO 205 colon = system: COLO 205 colon
# MDA-MB-435 = system: MDA-MB-435
# SF-268 CNS = system: SF-268 CNS
# HOP-62 NSCLC = system: HOP-62 NSCLC
# HCC-2998 colon = system: HCC-2998 colon
# SK-OV-3 ovarian = system: SK-OV-3 ovarian
# SK-MEL-28 melanoma = system: SK-MEL-28 melanoma
# A549 NSCLC = system: A549 NSCLC
# RXF 393 renal = system: RXF 393 renal
structure (smiles),measurement,setting,value
O=C(Nc1ccc(CN2CCOCC2)cc1)c1ccc(-c2cc(Cl)ccc2Cl)o1,GI50,NCI-H522 lung,10.2 µM
same,TGI,NCI-H522 lung,26.6 µM
same,GI50,HCT-116 colon,5.92 µM
same,TGI,HCT-116 colon,21.4 µM
same,GI50,SK-MEL-5 melanoma,4.45 µM
same,TGI,SK-MEL-5 melanoma,16.7 µM
same,GI50,SF-295 CNS,5.38 µM
same,TGI,SF-295 CNS,28.5 µM
same,GI50,SN12C renal,16.4 µM
same,TGI,SN12C renal,52.6 µM
same,GI50,CAKI-1 renal,13 µM
same,TGI,CAKI-1 renal,56.4 µM
same,GI50,PC-3 prostate,8.63 µM
same,TGI,PC-3 prostate,36.4 µM
same,GI50,OVCAR-5 ovarian,15.7 µM
same,TGI,OVCAR-5 ovarian,61.1 µM
same,GI50,UO-31 renal,18.3 µM
same,TGI,UO-31 renal,78.1 µM
same,GI50,OVCAR-8 ovarian,11.4 µM
same,TGI,OVCAR-8 ovarian,51.3 µM
same,GI50,KM12 colon,4.41 µM
same,TGI,KM12 colon,16.3 µM
same,GI50,RPMI-8226 leukemia,3.49 µM
same,TGI,RPMI-8226 leukemia,17.7 µM
same,GI50,SW-620 colon,3.33 µM
same,TGI,SW-620 colon,11.5 µM
same,GI50,OVCAR-4 ovarian,17.6 µM
same,TGI,OVCAR-4 ovarian,67.1 µM
same,GI50,SNB-19 CNS,16.2 µM
same,TGI,SNB-19 CNS,35.6 µM
same,GI50,HT29 colon,2.96 µM
same,TGI,HT29 colon,12 µM
same,GI50,ACHN renal,18.4 µM
same,TGI,ACHN renal,97.9 µM
same,GI50,SR leukemia,2.35 µM
same,TGI,SR leukemia,8.99 µM
same,GI50,IGROV1 ovarian,23.5 µM
same,TGI,IGROV1 ovarian,61.6 µM
same,GI50,T-47D breast,5.34 µM
same,TGI,T-47D breast,22.4 µM
same,GI50,M14 melanoma,11.1 µM
same,TGI,M14 melanoma,32.4 µM
same,GI50,LOX IMVI melanoma,2.65 µM
same,TGI,LOX IMVI melanoma,13 µM
same,GI50,UACC-257 melanoma,11.2 µM
same,TGI,UACC-257 melanoma,24.4 µM
same,GI50,MCF7 breast,9.98 µM
same,TGI,MCF7 breast,26.3 µM
same,GI50,CCRF-CEM leukemia,6.02 µM
same,TGI,CCRF-CEM leukemia,49.1 µM
same,GI50,DU-145 prostate,18 µM
same,TGI,DU-145 prostate,63.3 µM
same,GI50,NCI-H226 lung,12.2 µM
same,TGI,NCI-H226 lung,33.6 µM
same,GI50,MDA-MB-231 breast,10.7 µM
same,TGI,MDA-MB-231 breast,29.5 µM
same,GI50,786-0 renal,11.8 µM
same,TGI,786-0 renal,26.1 µM
same,GI50,HCT-15 colon,3.29 µM
same,TGI,HCT-15 colon,34.4 µM
same,GI50,U251 CNS,4.62 µM
same,TGI,U251 CNS,19.6 µM
same,GI50,NCI/ADR-RES ovarian,17.4 µM
same,TGI,NCI/ADR-RES ovarian,> 100 µM
same,GI50,UACC-62 melanoma,2.39 µM
same,TGI,UACC-62 melanoma,6.88 µM
same,GI50,MOLT-4 leukemia,4.34 µM
same,TGI,MOLT-4 leukemia,20.5 µM
same,GI50,SNB-75 CNS,16 µM
same,TGI,SNB-75 CNS,36 µM
same,GI50,MALME-3M melanoma,8.74 µM
same,TGI,MALME-3M melanoma,29.2 µM
same,GI50,A498 renal,10 µM
same,TGI,A498 renal,22.1 µM
same,GI50,SF-539 CNS,8.69 µM
same,TGI,SF-539 CNS,24.9 µM
same,GI50,OVCAR-3 ovarian,15.3 µM
same,TGI,OVCAR-3 ovarian,39.2 µM
same,GI50,NCI-H23 lung,12.8 µM
same,TGI,NCI-H23 lung,31.8 µM
same,GI50,HS 578T breast,12.5 µM
same,TGI,HS 578T breast,34.4 µM
same,GI50,HOP-92 NSCLC,10.2 µM
same,TGI,HOP-92 NSCLC,33.7 µM
same,GI50,K-562 leukemia,2 µM
same,TGI,K-562 leukemia,6.09 µM
same,GI50,SK-MEL-2 melanoma,14.7 µM
same,TGI,SK-MEL-2 melanoma,30.5 µM
same,GI50,NCI-H460 lung,3.54 µM
same,TGI,NCI-H460 lung,12.4 µM
same,GI50,TK-10 renal,13.1 µM
same,TGI,TK-10 renal,29.1 µM
same,GI50,HL-60(TB) leukemia,4.45 µM
same,TGI,HL-60(TB) leukemia,20.9 µM
same,GI50,BT-549 breast,7.79 µM
same,TGI,BT-549 breast,43.1 µM
same,GI50,COLO 205 colon,2.24 µM
same,TGI,COLO 205 colon,4.19 µM
same,GI50,MDA-MB-435,11.6 µM
same,TGI,MDA-MB-435,29.2 µM
same,GI50,SF-268 CNS,16.5 µM
same,TGI,SF-268 CNS,49.1 µM
same,GI50,HOP-62 NSCLC,15.5 µM
same,TGI,HOP-62 NSCLC,38.5 µM
same,GI50,HCC-2998 colon,9.29 µM
same,TGI,HCC-2998 colon,23 µM
same,GI50,SK-OV-3 ovarian,15.1 µM
same,TGI,SK-OV-3 ovarian,30.6 µM
same,GI50,SK-MEL-28 melanoma,11.9 µM
same,TGI,SK-MEL-28 melanoma,26.6 µM
same,GI50,A549 NSCLC,7.48 µM
same,TGI,A549 NSCLC,32.4 µM
O=C(/C=C/c1ccc(Cl)cc1)/C=C/c1cc2ccccc2[nH]c1=O,GI50,NCI-H522 lung,1.91 µM
same,TGI,NCI-H522 lung,5.4 µM
same,GI50,SK-MEL-5 melanoma,10.1 µM
same,TGI,SK-MEL-5 melanoma,25.2 µM
same,GI50,SF-295 CNS,3.48 µM
same,TGI,SF-295 CNS,13.2 µM
same,GI50,SN12C renal,3.67 µM
same,TGI,SN12C renal,17.4 µM
same,GI50,CAKI-1 renal,4.38 µM
same,TGI,CAKI-1 renal,21.8 µM
same,GI50,PC-3 prostate,2.91 µM
same,TGI,PC-3 prostate,13.7 µM
same,GI50,OVCAR-5 ovarian,4.65 µM
same,TGI,OVCAR-5 ovarian,19.6 µM
same,GI50,UO-31 renal,4.28 µM
same,TGI,UO-31 renal,20 µM
same,GI50,OVCAR-8 ovarian,3.03 µM
same,TGI,OVCAR-8 ovarian,12.9 µM
same,GI50,KM12 colon,3.11 µM
same,TGI,KM12 colon,10.3 µM
same,GI50,RXF 393 renal,2.81 µM
same,TGI,RXF 393 renal,8.88 µM
same,GI50,RPMI-8226 leukemia,1.29 µM
same,TGI,RPMI-8226 leukemia,4.65 µM
same,GI50,SW-620 colon,2.31 µM
same,TGI,SW-620 colon,5.82 µM
same,GI50,OVCAR-4 ovarian,5.06 µM
same,TGI,OVCAR-4 ovarian,74.3 µM
same,GI50,SNB-19 CNS,11.3 µM
same,TGI,SNB-19 CNS,24.7 µM
same,GI50,HT29 colon,2.5 µM
same,TGI,HT29 colon,6.33 µM
same,GI50,ACHN renal,4.96 µM
same,TGI,ACHN renal,20.3 µM
same,GI50,SR leukemia,2.42 µM
same,TGI,SR leukemia,8.19 µM
same,GI50,IGROV1 ovarian,2.34 µM
same,TGI,IGROV1 ovarian,5.5 µM
same,GI50,T-47D breast,3.46 µM
same,TGI,T-47D breast,22.7 µM
same,GI50,M14 melanoma,3.11 µM
same,TGI,M14 melanoma,13.4 µM
same,GI50,UACC-257 melanoma,5.2 µM
same,TGI,UACC-257 melanoma,19.6 µM
same,GI50,MCF7 breast,0.923 µM
same,TGI,MCF7 breast,8.45 µM
same,GI50,CCRF-CEM leukemia,3.09 µM
same,TGI,CCRF-CEM leukemia,9.74 µM
same,GI50,DU-145 prostate,3.52 µM
same,TGI,DU-145 prostate,11.7 µM
same,GI50,NCI-H226 lung,2.59 µM
same,TGI,NCI-H226 lung,11.4 µM
same,GI50,MDA-MB-231 breast,2.64 µM
same,TGI,MDA-MB-231 breast,7.82 µM
same,GI50,786-0 renal,2.02 µM
same,TGI,786-0 renal,4.16 µM
same,GI50,HCT-15 colon,2.85 µM
same,TGI,HCT-15 colon,14.6 µM
same,GI50,U251 CNS,1.81 µM
same,TGI,U251 CNS,3.68 µM
same,GI50,NCI/ADR-RES ovarian,16.8 µM
same,TGI,NCI/ADR-RES ovarian,> 100 µM
same,GI50,UACC-62 melanoma,2.8 µM
same,TGI,UACC-62 melanoma,10.5 µM
same,GI50,MOLT-4 leukemia,3.82 µM
same,TGI,MOLT-4 leukemia,13.8 µM
same,GI50,SNB-75 CNS,5.79 µM
same,TGI,SNB-75 CNS,24.7 µM
same,GI50,MALME-3M melanoma,7.63 µM
same,TGI,MALME-3M melanoma,38.4 µM
same,GI50,A498 renal,5.87 µM
same,TGI,A498 renal,18.8 µM
same,GI50,SF-539 CNS,2.88 µM
same,TGI,SF-539 CNS,9.37 µM
same,GI50,OVCAR-3 ovarian,2.07 µM
same,TGI,OVCAR-3 ovarian,4.5 µM
same,GI50,NCI-H23 lung,4.76 µM
same,TGI,NCI-H23 lung,23.5 µM
same,GI50,HS 578T breast,4.14 µM
same,TGI,HS 578T breast,66.6 µM
same,GI50,NCI-H460 lung,8.52 µM
same,TGI,NCI-H460 lung,28.9 µM
same,GI50,TK-10 renal,12.3 µM
same,TGI,TK-10 renal,31.8 µM
same,GI50,HL-60(TB) leukemia,2.83 µM
same,TGI,HL-60(TB) leukemia,8.39 µM
same,GI50,BT-549 breast,3.29 µM
same,TGI,BT-549 breast,11.7 µM
same,GI50,COLO 205 colon,3.65 µM
same,TGI,COLO 205 colon,11.7 µM
same,GI50,MDA-MB-435,2.34 µM
same,TGI,MDA-MB-435,5.63 µM
same,GI50,SF-268 CNS,3.61 µM
same,TGI,SF-268 CNS,16 µM
same,GI50,HOP-62 NSCLC,8.21 µM
same,TGI,HOP-62 NSCLC,26 µM
same,GI50,HCC-2998 colon,2.02 µM
same,TGI,HCC-2998 colon,3.62 µM
same,GI50,SK-OV-3 ovarian,12.2 µM
same,TGI,SK-OV-3 ovarian,32.7 µM
same,GI50,SK-MEL-28 melanoma,10 µM
same,TGI,SK-MEL-28 melanoma,26.2 µM
same,GI50,A549 NSCLC,3.16 µM
same,TGI,A549 NSCLC,48.9 µM
